The nature of series [1]: In vivo receptor occupancy at human dopamine D2 receptor in schizophrenia patient brain at 10 mCi, iv by PET scanning. It is filed as functional.
The nature of series [2]: In vivo receptor occupancy at human dopamine D1 receptor in schizophrenia patient brain at 10 mCi, iv by PET scanning. It is filed as functional.
A further series concerns the target D(2) dopamine receptor (Homo sapiens, UniProt P14416).
Series [3] can be described thus: Drug metabolism in human hepatocyte microsome fraction assessed as GSH conjugate formation by LC-MS/MS analysis. The format is ADME. The conditions noted are these: microsomes.
Series [4] concerns the target T1, D(1A) dopamine receptor (Homo sapiens, UniProt P21728). Description: Potency index, ratio of Clozapine Ki to compound Ki for binding affinity to human dopamine D1 receptor.
The target of series [5] is 5-hydroxytryptamine receptor 2A (Homo sapiens, UniProt P28223). Put plainly: Binding affinity to human 5HT2A receptor.
5-hydroxytryptamine receptor 2A, sequence (P28223 whole entry): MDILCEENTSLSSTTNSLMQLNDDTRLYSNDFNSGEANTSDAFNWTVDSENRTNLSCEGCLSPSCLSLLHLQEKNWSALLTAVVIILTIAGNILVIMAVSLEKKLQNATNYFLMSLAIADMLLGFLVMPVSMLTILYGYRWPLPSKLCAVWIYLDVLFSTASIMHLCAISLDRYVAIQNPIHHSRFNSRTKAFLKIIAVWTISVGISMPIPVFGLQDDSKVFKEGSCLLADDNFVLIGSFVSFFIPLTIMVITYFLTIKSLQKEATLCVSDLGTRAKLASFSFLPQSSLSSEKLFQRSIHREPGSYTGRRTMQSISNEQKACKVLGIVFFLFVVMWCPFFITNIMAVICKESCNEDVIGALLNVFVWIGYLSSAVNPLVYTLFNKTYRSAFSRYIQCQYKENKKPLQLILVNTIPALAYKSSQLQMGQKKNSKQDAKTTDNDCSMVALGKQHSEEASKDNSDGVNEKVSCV
Series [6] has as its target Voltage-gated inwardly rectifying potassium channel KCNH2 (Homo sapiens, UniProt Q12809). Description: Inhibition of human ERG.
Series [7] has as its target T1, D(1A) dopamine receptor. Put plainly: Binding affinity to human dopamine D1 receptor.
Series [8] in a line: In vivo receptor occupancy at dopamine D1 receptor in sc dosed rat brain by measuring free plasma concentration pretreated for 1 hr in presence of raclopride by LC-MS/MS analysis. It is filed as functional.
A short description of series [9]: In vivo receptor occupancy at dopamine D1 receptor in sc dosed rat brain by measuring free plasma concentration pretreated for 1 hr in presence of SCH-23390 by LC-MS/MS analysis. The format is functional.

T1 sequence (P21728 whole entry): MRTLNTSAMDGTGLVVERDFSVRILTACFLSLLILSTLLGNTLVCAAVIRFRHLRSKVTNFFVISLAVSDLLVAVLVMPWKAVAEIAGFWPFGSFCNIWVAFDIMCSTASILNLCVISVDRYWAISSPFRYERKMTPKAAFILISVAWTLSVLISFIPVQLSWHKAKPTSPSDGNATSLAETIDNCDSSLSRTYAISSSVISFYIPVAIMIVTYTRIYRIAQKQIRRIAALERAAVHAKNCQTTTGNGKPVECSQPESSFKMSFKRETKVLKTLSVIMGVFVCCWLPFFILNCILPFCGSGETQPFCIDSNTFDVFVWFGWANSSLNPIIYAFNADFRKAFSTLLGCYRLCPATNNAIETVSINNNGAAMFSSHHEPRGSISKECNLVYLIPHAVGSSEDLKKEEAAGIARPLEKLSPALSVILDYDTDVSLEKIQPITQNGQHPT
D(2) dopamine receptor, sequence (P14416 whole entry): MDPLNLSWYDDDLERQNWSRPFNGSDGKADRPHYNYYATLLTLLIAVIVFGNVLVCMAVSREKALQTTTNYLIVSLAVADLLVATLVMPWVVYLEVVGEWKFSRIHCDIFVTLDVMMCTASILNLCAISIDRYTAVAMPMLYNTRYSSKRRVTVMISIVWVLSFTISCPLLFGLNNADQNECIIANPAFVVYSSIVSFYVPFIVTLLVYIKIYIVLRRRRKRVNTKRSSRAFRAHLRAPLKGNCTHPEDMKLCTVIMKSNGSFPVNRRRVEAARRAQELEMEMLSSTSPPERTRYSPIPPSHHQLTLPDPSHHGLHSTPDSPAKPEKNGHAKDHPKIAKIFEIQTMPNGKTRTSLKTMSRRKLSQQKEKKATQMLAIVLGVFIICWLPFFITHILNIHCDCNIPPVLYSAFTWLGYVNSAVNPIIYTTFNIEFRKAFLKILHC
Voltage-gated inwardly rectifying potassium channel KCNH2, sequence (Q12809 whole entry): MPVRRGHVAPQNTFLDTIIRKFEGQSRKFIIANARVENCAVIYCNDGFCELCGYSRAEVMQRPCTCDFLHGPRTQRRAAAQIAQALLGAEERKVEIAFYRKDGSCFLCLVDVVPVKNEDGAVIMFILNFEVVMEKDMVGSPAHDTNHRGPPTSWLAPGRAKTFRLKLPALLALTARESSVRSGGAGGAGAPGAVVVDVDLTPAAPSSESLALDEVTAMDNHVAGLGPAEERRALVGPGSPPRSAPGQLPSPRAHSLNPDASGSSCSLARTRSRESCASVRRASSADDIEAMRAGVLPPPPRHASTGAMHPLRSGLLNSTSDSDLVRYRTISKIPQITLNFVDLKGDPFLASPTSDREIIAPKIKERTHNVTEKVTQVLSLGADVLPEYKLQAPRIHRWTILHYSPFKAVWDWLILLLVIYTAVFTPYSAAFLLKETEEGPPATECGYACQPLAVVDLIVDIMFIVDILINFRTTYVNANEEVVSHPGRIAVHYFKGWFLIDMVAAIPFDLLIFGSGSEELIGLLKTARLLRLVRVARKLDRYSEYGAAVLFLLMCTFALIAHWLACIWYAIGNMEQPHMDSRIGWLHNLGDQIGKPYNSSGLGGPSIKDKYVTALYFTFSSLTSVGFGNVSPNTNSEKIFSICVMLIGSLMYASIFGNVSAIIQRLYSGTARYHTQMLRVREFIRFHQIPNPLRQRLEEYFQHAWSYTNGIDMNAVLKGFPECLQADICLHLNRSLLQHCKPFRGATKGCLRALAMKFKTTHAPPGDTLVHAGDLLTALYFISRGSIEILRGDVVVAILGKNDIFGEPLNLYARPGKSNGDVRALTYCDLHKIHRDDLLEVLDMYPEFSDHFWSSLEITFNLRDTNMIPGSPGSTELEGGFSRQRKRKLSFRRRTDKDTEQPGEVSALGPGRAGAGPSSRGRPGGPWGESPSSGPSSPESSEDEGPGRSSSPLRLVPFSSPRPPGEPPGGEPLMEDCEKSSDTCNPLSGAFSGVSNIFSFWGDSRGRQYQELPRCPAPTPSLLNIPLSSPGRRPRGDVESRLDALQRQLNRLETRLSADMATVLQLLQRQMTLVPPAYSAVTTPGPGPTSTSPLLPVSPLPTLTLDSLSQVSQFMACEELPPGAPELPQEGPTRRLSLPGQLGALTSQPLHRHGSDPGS
Description for D(2) dopamine receptor: Binding affinity to human dopamine D2 receptor

As for `Cc1nc2n(c(=O)c1CCN1CCC(c3noc4cc(F)ccc34)CC1)CCCC2` [RISPERIDONE], the Occ in [1] was found to be 81%; in series [2] it was 25%.
Turning to `CCOc1ccc2c(c1)C(C1=C[C@H](C)N(C)CC1)=Nc1cc(Cl)ccc1N2`, the results for the Ki (on D(2) dopamine receptor; in [5]; at D(1A) dopamine receptor [7]) were 47 nM, 0.091 nM and 3.7 nM, respectively. In series [3], the Drug metabolism turned out to be 0.77 µmol/L. The Ratio on D(1A) dopamine receptor [4] was 10. The IC50 in series [6] came to 900 nM.
With `Cc1ccc2c(c1)C(C1=C[C@H](C)N(C)CC1)=Nc1cc(Cl)ccc1N2`, the inhibition constant Ki on D(2) dopamine receptor amounted to 63 nM; in series [5], 0.094 nM; at D(1A) dopamine receptor [7] it was 2.3 nM. For the same compound, in series [3], the Drug metabolism came to 0.35 µmol/L.
For `CCc1ccc2c(c1)C(C1=C[C@H](C)N(C)CC1)=Nc1ccccc1N2`, the Ki on D(2) dopamine receptor was 167 nM; on D(1A) dopamine receptor [7] it was 4 nM. Besides, the Drug metabolism in series [3] came to 0.86 µmol/L. Further, the IC50 in series [6] worked out at 600 nM.
For the compound `Cc1ccc2c(c1)N=C(C1=C[C@H](C)N(C)CC1)c1cc(OC(F)(F)F)ccc1N2`, the Ki came out at 1220 nM on D(2) dopamine receptor and 2.4 nM on D(1A) dopamine receptor [7].
Regarding `Cc1ccc2c(c1)C(C1=C[C@H](C)N(C)CC1)=Nc1ccccc1N2`, the values for the Ki at D(2) dopamine receptor and at D(1A) dopamine receptor [7] were 819 nM and 7.9 nM, respectively. Also, in [3], the Drug metabolism came out at 0.85 µmol/L.
As for `OCCOCCN1CCN(C2=Nc3ccccc3Sc3ccccc32)CC1` [QUETIAPINE], the Occ was found to be 30% in [1] and 12% in [2].
Turning to `Cc1ccc2c(c1)N=C(C1=C[C@H](C)N(C)CC1)c1cc(Cl)ccc1N2`, the values for the Ki at D(2) dopamine receptor and on D(1A) dopamine receptor [7] were 98 nM and 0.48 nM, respectively. Besides, the Drug metabolism in [3] amounted to 0.38 µmol/L. Also, in [6], the 50% inhibitory concentration (IC50) is 1100 nM.
The like results for `C[C@H]1C=C(C2=Nc3cc(Cl)ccc3Nc3ccc(C#N)cc32)CCN1C` were, in that order, 135 nM, 1.1 nM, 0.49 µmol/L and 600 nM.
Consider `COc1ccc2c(c1)C(C1=C[C@H](C)N(C)CC1)=Nc1cc(Cl)ccc1N2`, for which the Ki turned out to be 69 nM at D(2) dopamine receptor and 2 nM on D(1A) dopamine receptor [7]. Moreover, the Drug metabolism in series [3] was 0.89 µmol/L. The compound further yielded an IC50 in [6] of 1500 nM.
As to `Cc1ccc2c(c1)N=C(C1=C[C@H](C)N(C)CC1)c1cc(F)ccc1N2`, the Ki on D(2) dopamine receptor came to 453 nM; on D(1A) dopamine receptor [7], 5.5 nM. The Drug metabolism in series [3] amounted to 0.25 µmol/L. For the same compound, the IC50 in series [6] came to 1600 nM.
Consider `C[C@H]1C=C(C2=Nc3ccccc3Nc3ccc(Cl)cc32)CCN1C`, for which the figures for the inhibition constant (Ki) at D(2) dopamine receptor and on D(1A) dopamine receptor [7] were 124 nM and 1.6 nM, respectively. Further, the Drug metabolism in [3] came to 0.67 µmol/L. In series [6], this compound displayed an IC50 of 600 nM.
`CN1CCC(C2=Nc3cc(Cl)ccc3Nc3ccccc32)=CC1(C)C`: the Ki is 1180 nM on D(2) dopamine receptor and 55 nM on D(1A) dopamine receptor [7]. The Drug metabolism in series [3] turned out to be 0.99 µmol/L.
For `COc1ccc2c(c1)C(C1=C[C@H](C)N(C)CC1)=Nc1cc(C)ccc1N2`, on D(2) dopamine receptor, the Ki is above 1400 nM.
Take `C[C@H]1C=C(C2=Nc3cc(Cl)ccc3Nc3ccc(F)cc32)CCN1C`: the inhibition constant Ki at D(2) dopamine receptor came to 127 nM; on D(1A) dopamine receptor [7], 0.2 nM. Further, the Drug metabolism in [3] came out at 0.24 µmol/L. In series [6], this compound yielded a concentration for half-maximal inhibition (IC50) of 1200 nM.
Consider `C[C@@H]1C=C(C2=Nc3cc(Cl)ccc3Nc3ccccc32)CCN1C`, for which the inhibition constant (Ki) at D(2) dopamine receptor was above 1400 nM; on D(1A) dopamine receptor [7], 780 nM. For the same compound, in series [3], the Drug metabolism is 0.84 µmol/L.
As for `C[C@H]1C=C(C2=Nc3cc(Cl)ccc3Nc3ccccc32)CCN1C`, the Ki on D(2) dopamine receptor was found to be 479 nM; on D(1A) dopamine receptor [7], 51 nM. For the same compound, in series [3], the Drug metabolism was 1.3 µmol/L.
Taken in the same sequence, the figures for `CN1CC=C(C2=Nc3cc(Cl)ccc3Nc3ccccc32)CC1` were 1380 nM, 380 nM and 0.21 µmol/L.
As for `Cc1ccc2c(c1)N=C(C1=C[C@H](C)N(C)CC1)c1cc(C)ccc1N2`, on D(2) dopamine receptor, the Ki is above 1400 nM.
As to `CN1CCN([C@@H]2C[C@@H](c3ccccc3)c3ccc(Cl)cc32)CC1(C)C` [ZICRONAPINE], in [3], the Drug metabolism worked out at 0 µmol/L. Also, the Occ50 in [8] is 6.6 nM; in series [9], 23 nM.
Consider `CN1CCN(C2=Nc3cc(Cl)ccc3Nc3ccccc32)CC1` [CLOZAPINE], for which the Occ in [1] is 61%; in [2], 55%. The Occ50 in series [8] was 73.4 nM; in [9] it was 24.2 nM.
Turning to `C[C@H]1C=C(C2=Nc3cc(Cl)ccc3Nc3ccc(Cl)cc32)CCN1C`, the values for the Ki at D(2) dopamine receptor and on D(1A) dopamine receptor [7] were 106 nM and 0.9 nM, respectively. The Drug metabolism in [3] stood at 0.72 µmol/L. The same compound registered an IC50 in series [6] of 900 nM.
`Cc1cc2c(s1)Nc1ccccc1N=C2N1CCN(C)CC1` [OLANZAPINE]: the Drug metabolism in [3] turned out to be 0.077 µmol/L. For the same compound, the Occ in series [1] is listed as 79%; in [2], 43%. For the same compound, the values for the Occ50 in series [8] and in series [9] were 480 nM and 3.8 nM, respectively.
At D(2) dopamine receptor, `Cc1ccc2c(c1)N=C(C1=C[C@H](C)N(C)CC1)c1ccccc1N2` showed a Ki above 1400 nM.
Regarding `CCc1ccc2c(c1)C(C1=C[C@H](C)N(C)CC1)=Nc1cc(Cl)ccc1N2`, the inhibition constant (Ki) is 28 nM at D(2) dopamine receptor, 0.094 nM in series [5] and 1.4 nM on D(1A) dopamine receptor [7]. Also, the Drug metabolism in [3] stood at 0.53 µmol/L. The Ratio on D(1A) dopamine receptor [4] came out at 10. Besides, the results for the Occ50 in [8] and in [9] were 6 nM and 1 nM, respectively. This compound displayed a concentration for half-maximal inhibition (IC50) in series [6] of 1100 nM.
Regarding `C[C@H]1C=C(C2=Nc3cc(Cl)ccc3Nc3ccc(OC(F)(F)F)cc32)CCN1C`, the Ki at D(2) dopamine receptor was 110 nM; in [5], 0.14 nM; on D(1A) dopamine receptor [7], 2 nM. For the same compound, in series [3], the Drug metabolism turned out to be 0.58 µmol/L. The IC50 in series [6] is 1900 nM.

In general, Ki refers to the equilibrium dissociation constant of an inhibitor or competing ligand from its target. For orientation: IC50 means the point on the concentration scale where inhibition reaches its midpoint.

The record behind these values is ChEMBL document CHEMBL4665835, “Synthesis and pharmacological evaluation of 11-(1,6-dimethyl-1,2,3,6-tetrahydropyridin-4-yl)-5H-dibenzo[b,e][1,4]diazepines with clozapine-like receptor occupancy at dopamine D/D receptor” (Bioorg Med Chem Lett, 2020).
